# Measured values as given in patent US9474790B2, “Stable, protracted GLP-1/glucagon receptor co-agonists for medical use” (Novo Nordisk A/S, priority 2013, dated 2016).
# Numbered stars: 1 amine (or outer) side, 2 acyl side, 3 side chain; on linkers, the order of the positions; unused ones are H or OH. Square brackets hold non-standard residues; d marks the D form. Side chains are listed from the residue outwards. Peptide text beside a SMILES is read from it. * marks the point of attachment. C18 diacid = O=C(O)CCCCCCCCCCCCCCCCC(=O)*; γGlu = O=C(O)[C@H](CCC(=O)[*:2])N[*:1]; AEEA = NCCOCCOCC(=O)O; Aib = CC(C)(N)C(=O)O
# Assays:
# human GLP-1 receptor = biological target: T1, human GLP-1 receptor (Homo sapiens, UniProt P43220); assay: GLP-1 receptor binding, 125I-GLP-1 displacement SPA on isolated membranes; conditions: displacement of 125I-GLP-1 from membranes; read-out: IC50 GLP-1R
# T1 construct: expressed in transfected cells; host or cells: BHK cells (parent BHKTS13), clone FCW467-12A/KZ10-1, with CRE luciferase
# Procedure, shortened: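 Test derivatives, serially diluted, competed with 125I-GLP-1(7-36)NH2 for the human GLP-1 receptor on BHK membranes, read by WGA-bead scintillation proximity after 2 h at 30°C, pH 7.4 HEPES/EGTA/MgCl2 buffer. Final serum albumin was either ≤0.001% or 2.0%; IC50 from non-linear fit.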
# [1] = Chemical stability assessment by RP-UPLC; type: physicochemical; conditions: 333 μM, 8 mM phosphate buffer pH 7.3, 37° C. vs 5° C.
# Procedure, shortened: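 Purity loss = (purity after 14 days at 5° C. minus that at 37° C.) relative to the 5° C. value, purity being main-peak area % by RP-UPLC with UV at 215 nm. Samples were 333 μM in 8 mM phosphate, pH 7.3; gradient adjusted for outlying retention times.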
# T1 sequence (P43220 24-463): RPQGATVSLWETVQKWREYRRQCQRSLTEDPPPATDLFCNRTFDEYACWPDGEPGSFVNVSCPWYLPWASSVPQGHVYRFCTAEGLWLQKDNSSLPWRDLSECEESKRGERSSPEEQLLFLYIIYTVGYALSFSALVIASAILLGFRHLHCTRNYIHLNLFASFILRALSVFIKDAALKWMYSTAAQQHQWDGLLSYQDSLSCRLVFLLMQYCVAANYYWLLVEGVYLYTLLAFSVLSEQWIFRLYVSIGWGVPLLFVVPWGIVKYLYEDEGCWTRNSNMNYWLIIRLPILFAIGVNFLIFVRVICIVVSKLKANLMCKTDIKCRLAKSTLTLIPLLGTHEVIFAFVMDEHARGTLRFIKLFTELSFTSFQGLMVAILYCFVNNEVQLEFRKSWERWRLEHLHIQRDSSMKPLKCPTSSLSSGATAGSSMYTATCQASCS
IC50 (human GLP-1 receptor) [nM],Purity loss; 14 days at 37° C. [1] [%],SMILES
0.4,2,"CC(C)C[C@H](NC(=O)[C@H](CC(C)C)NC(=O)[C@H](Cc1c[nH]c2ccccc12)NC(=O)[C@H](CCC(N)=O)NC(=O)[C@@H](NC(=O)[C@H](Cc1ccccc1)NC(=O)[C@H](CCC(=O)O)NC(=O)[C@H](CCCNC(=N)N)NC(=O)[C@H](C)NC(=O)[C@H](CCCNC(=N)N)NC(=O)[C@H](CCCNC(=N)N)NC(=O)[C@H](CO)NC(=O)[C@H](CCC(=O)O)NC(=O)[C@H](CC(C)C)NC(=O)[C@H](Cc1ccc(O)cc1)NC(=O)[C@H](CCCCN)NC(=O)[C@H](CO)NC(=O)[C@H](CC(C)C)NC(=O)[C@H](CC(=O)O)NC(=O)[C@H](CO)NC(=O)[C@@H](NC(=O)[C@H](Cc1ccccc1)NC(=O)[C@@H](NC(=O)CNC(=O)[C@H](CCC(N)=O)NC(=O)C(C)(C)NC(=O)[C@@H](N)Cc1c[nH]cn1)[C@@H](C)O)[C@@H](C)O)C(C)C)C(=O)N[C@@H](CC(N)=O)C(=O)N[C@@H](CCCCNC(=O)CC[C@H](NC(=O)CC[C@H](NC(=O)COCCOCCNC(=O)CC[C@H](NC(=O)CCCCCCCCCCCCCCCCC(=O)O)C(=O)O)C(=O)O)C(=O)O)C(N)=O [Example 40, N^ε29-[(4S)-4-carboxy-4-[[(4S)-4-carboxy-4-[[2-[2-[2-[[(4S)-4-carboxy-4-(17-carboxyheptadecanoylamino)butanoyl]amino]ethoxy]ethoxy]acetyl]amino]butanoyl]amino]butanoyl]-[Aib2,Leu10,Glu15,Arg20,Glu21,Leu27,Lys29]-Glucagon amide] (H-H[Aib]QGTFTSDLSKYLESRRAREFVQWLLNK([γGlu-γGlu-AEEA-γGlu-C18 diacid])-NH2; N-terminus assumed)"
0.3,1,"CC(C)C[C@H](NC(=O)[C@H](Cc1ccc(O)cc1)NC(=O)[C@H](CCCCN)NC(=O)[C@H](CO)NC(=O)[C@H](CC(C)C)NC(=O)[C@H](CC(=O)O)NC(=O)[C@H](CO)NC(=O)[C@@H](NC(=O)[C@H](Cc1ccccc1)NC(=O)[C@@H](NC(=O)CNC(=O)[C@H](CCC(N)=O)NC(=O)C(C)(C)NC(=O)[C@@H](N)Cc1c[nH]cn1)[C@@H](C)O)[C@@H](C)O)C(=O)N[C@@H](CCC(=O)O)C(=O)N[C@@H](CO)C(=O)N[C@@H](CCCNC(=N)N)C(=O)N[C@@H](CCCNC(=N)N)C(=O)N[C@@H](C)C(=O)N[C@@H](CCCNC(=N)N)C(=O)N[C@@H](CCC(=O)O)C(=O)N[C@@H](Cc1ccccc1)C(=O)N[C@H](C(=O)N[C@@H](CCC(N)=O)C(=O)N[C@@H](Cc1c[nH]c2ccccc12)C(=O)N[C@@H](CC(C)C)C(=O)N[C@@H](CC(C)C)C(=O)N[C@@H](CCCCNC(=O)CC[C@H](NC(=O)CC[C@H](NC(=O)CC[C@H](NC(=O)CCCCCCCCCCCCCCCCC(=O)O)C(=O)O)C(=O)O)C(=O)O)C(=O)N[C@H](C(N)=O)[C@@H](C)O)C(C)C [Example 41, N^ε28-[(4S)-4-carboxy-4-[[(4S)-4-carboxy-4-[[(4S)-4-carboxy-4-(17-carboxyheptadecanoylamino)butanoyl]amino]butanoyl]amino]butanoyl]-[Aib2,Leu10,Glu15, Arg20,Glu21,Leu27,Lys28]-Glucagon amide] (H-H[Aib]QGTFTSDLSKYLESRRAREFVQWLLK([γGlu-γGlu-γGlu-C18 diacid])T-NH2; N-terminus assumed)"
